Results as given in patent EP4635500A1, “THERAPEUTIC AGENT FOR BACTERIAL INFECTION” (Sumitomo Pharma Co., Ltd., priority 2022, dated 2024).
In brackets after ≈: the same amount, converted by molar mass. Like-named read-outs stand apart in the source and are kept apart here.

Legend:
Type in all cases: cell-based
[1] = tested on: Metallo-β-lactamase producing strains (N = 27); experiment: MIC50/MIC90 for carbapenemase-producing isolates (Example 5, Table 6); set-up: MIC50: unit not given here; settings: for MIC90: metallo-β-lactamase-producing strains, combination: Compound A at a fixed concentration of 4 µg/mL
Prevotella spp. = experiment: MIC, agar dilution, anaerobic bacteria (Example 9, Tables 18, 23); settings: for MIC: (n)=Compound A µg/mL, 0=Compound A alone antibacterial
Porphyromonas spp. = experiment: MIC, agar dilution, anaerobic bacteria (Example 9, Tables 19, 24); settings: for MIC: (n)=Compound A µg/mL, 0=Compound A alone antibacterial
Escherichia coli = experiment: MIC, broth microdilution, standard strains and Japanese clinical isolates (Example 5, Table 4); settings: ATCCBAA2452; KUB4005 Escherichia coli ATCC BAA-2452, NDM-1
Klebsiella pneumoniae = experiment: as above; settings: IMP-6

## CN(C)c1cc(NC(=O)CNC(C)(C)C)c(O)c2c1C[C@H]1C[C@H]3[C@H](N(C)C)C(O)=C(C(N)=O)C(=O)[C@@]3(O)C(O)=C1C2=O [Tigecycline, tigecycline]
[1]; read-out: MIC90
  MIC90: 4 µg/mL

## Cc1ncc([N+](=O)[O-])n1CCO [Metronidazole]
Prevotella spp.; KUB No. 2989 Prevotella histicola
  MIC: 0.5 µg/mL (≈ 2.92 µM)
Prevotella spp.; KUB No. 2991 Prevotella intermedia
  MIC: 0.5 µg/mL (≈ 2.92 µM)
Prevotella spp.; KUB No. 2992 Prevotella buccae
  MIC: 1 µg/mL (≈ 5.84 µM)
Prevotella spp.; KUB No. 3005 Prevotella melaninogenica
  MIC: 1 µg/mL (≈ 5.84 µM)
Prevotella spp.; KUB No. 6558 Prevotella heparinolytica
  MIC: 0.25 µg/mL (≈ 1.46 µM)
Prevotella spp.; KUB No. 6559 Prevotella intermedia
  MIC: 2 µg/mL (≈ 11.7 µM)
Prevotella spp.; KUB No. 6560 Prevotella nigrescens
  MIC: 0.5 µg/mL (≈ 2.92 µM)
Prevotella spp.; KUB No. 6561 Prevotella melaninogenica
  MIC: 1 µg/mL (≈ 5.84 µM)
Prevotella spp.; KUB No. 6563 Prevotella nigrescens
  MIC: 0.5 µg/mL (≈ 2.92 µM)
Prevotella spp.; KUB No. 6564 Prevotella buccae
  MIC: 2 µg/mL (≈ 11.7 µM)
Prevotella spp.; KUB No. 6565 Prevotella nigrescens
  MIC: 0.5 µg/mL (≈ 2.92 µM)
Prevotella spp.; KUB No. 6567 Prevotella melaninogenica
  MIC: 0.5 µg/mL (≈ 2.92 µM)
Prevotella spp.; KUB No. 6568 Prevotella intermedia
  MIC: 1 µg/mL (≈ 5.84 µM)
Prevotella spp.; KUB No. 6569 Prevotella nanceiensis
  MIC: 2 µg/mL (≈ 11.7 µM)
Prevotella spp.; KUB No. 6570 Prevotella intermedia
  MIC: 2 µg/mL (≈ 11.7 µM)
Prevotella spp.; KUB No. 6571 Prevotella denticola
  MIC: 0.25 µg/mL (≈ 1.46 µM)
Prevotella spp.; KUB No. 6572 Prevotella melaninogenica
  MIC: 0.5 µg/mL (≈ 2.92 µM)
Prevotella spp.; KUB No. 6574 Prevotella oris
  MIC: 0.5 µg/mL (≈ 2.92 µM)
Prevotella spp.; KUB No. 6575 Prevotella nigrescens
  MIC: 1 µg/mL (≈ 5.84 µM)
Prevotella spp.; KUB No. 6576 Prevotella intermedia
  MIC: 0.25 µg/mL (≈ 1.46 µM)
Prevotella spp.; KUB No. 6579 Prevotella pallens
  MIC: 0.5 µg/mL (≈ 2.92 µM)
Prevotella spp.; KUB No. 6581 Prevotella intermedia
  MIC: 2 µg/mL (≈ 11.7 µM)
Prevotella spp.; KUB No. 6582 Prevotella melaninogenica
  MIC: 0.5 µg/mL (≈ 2.92 µM)
Prevotella spp.; KUB No. 6585 Prevotella baroniae
  MIC: 1 µg/mL (≈ 5.84 µM)
Prevotella spp.; KUB No. 6587 Prevotella melaninogenica
  MIC: ≤ 0.12 µg/mL
Prevotella spp.; KUB No. 6588 Prevotella nigrescens
  MIC: 0.5 µg/mL (≈ 2.92 µM)
Prevotella spp.; KUB No. 6589 Prevotella buccae
  MIC: 0.5 µg/mL (≈ 2.92 µM)
Prevotella spp.; KUB No. 6590 Prevotella buccae
  MIC: 0.5 µg/mL (≈ 2.92 µM)
Prevotella spp.; KUB No. 6591 Prevotella intermedia
  MIC: 0.5 µg/mL (≈ 2.92 µM)
Prevotella spp.; KUB No. 6592 Prevotella jejuni
  MIC: 0.5 µg/mL (≈ 2.92 µM)
Prevotella spp.; KUB No. 6600 Prevotella intermedia
  MIC: 0.5 µg/mL (≈ 2.92 µM)
Prevotella spp.; KUB No. 6601 Prevotella melaninogenica
  MIC: 0.5 µg/mL (≈ 2.92 µM)
Prevotella spp.; KUB No. 6603 Prevotella melaninogenica
  MIC: 0.25 µg/mL (≈ 1.46 µM)
Prevotella spp.; KUB No. 6609 Prevotella buccae
  MIC: 0.5 µg/mL (≈ 2.92 µM)
Prevotella spp.; KUB No. 6611 Prevotella nigrescens
  MIC: 1 µg/mL (≈ 5.84 µM)
Prevotella spp.; KUB No. 6612 Prevotella oris
  MIC: 0.5 µg/mL (≈ 2.92 µM)
Prevotella spp.; KUB No. 6613 Prevotella buccae
  MIC: 0.5 µg/mL (≈ 2.92 µM)
Prevotella spp.; KUB No. 6614 Prevotella intermedia
  MIC: 1 µg/mL (≈ 5.84 µM)
Prevotella spp.; KUB No. 6615 Prevotella buccae
  MIC: 1 µg/mL (≈ 5.84 µM)
Prevotella spp.; KUB No. 6617 Prevotella buccae
  MIC: 2 µg/mL (≈ 11.7 µM)
Prevotella spp.; KUB No. 6618 Prevotella melaninogenica
  MIC: 0.25 µg/mL (≈ 1.46 µM)
Prevotella spp.; KUB No. 6622 Prevotella loescheii
  MIC: 1 µg/mL (≈ 5.84 µM)
Prevotella spp.; KUB No. 6623 Prevotella nigrescens
  MIC: 1 µg/mL (≈ 5.84 µM)
Prevotella spp.; KUB No. 6625 Prevotella melaninogenica
  MIC: 0.5 µg/mL (≈ 2.92 µM)
Prevotella spp.; KUB No. 6626 Prevotella loescheii
  MIC: 1 µg/mL (≈ 5.84 µM)
Prevotella spp.; KUB No. 6629 Prevotella bivia
  MIC: 8 µg/mL (≈ 46.7 µM)
Prevotella spp.; KUB No. 6630 Prevotella nigrescens
  MIC: 0.5 µg/mL (≈ 2.92 µM)
Prevotella spp.; KUB No. 6631 Prevotella jejuni
  MIC: 0.5 µg/mL (≈ 2.92 µM)
Prevotella spp.; Prevotella spp.
  MICrange: ≤0.12 to 8 µg/mL
Prevotella spp.; Prevotella spp., read-out: MIC50
  MIC50: 0.5 µg/mL (≈ 2.92 µM)
Prevotella spp.; Prevotella spp., read-out: MIC90
  MIC90: 2 µg/mL (≈ 11.7 µM)
Prevotella spp.; Prevotella, KUB No. 6583 Prevotella nonceiensis
  MIC: 2 µg/mL (≈ 11.7 µM)
Prevotella spp.; Prevotella, KUB No. 6604 Prevotella nonceiensis
  MIC: 1 µg/mL (≈ 5.84 µM)
Prevotella spp.; po, KUB No. 6566 Prevotella oralis
  MIC: 0.25 µg/mL (≈ 1.46 µM)
Porphyromonas spp.; KUB No. 6663 Porphyromonas gingivalis
  MIC: ≤ 0.12 µg/mL
Porphyromonas spp.; KUB No. 6666 Porphyromonas gingivalis
  MIC: ≤ 0.12 µg/mL
Porphyromonas spp.; KUB No. 6667 Porphyromonas gingivalis
  MIC: ≤ 0.12 µg/mL
Porphyromonas spp.; KUB No. 6668 Porphyromonas gingivalis
  MIC: ≤ 0.12 µg/mL
Porphyromonas spp.; KUB No. 6669 Porphyromonas gingivalis
  MIC: ≤ 0.12 µg/mL
Porphyromonas spp.; KUB No. 6670 Porphyromonas gingivalis
  MIC: ≤ 0.12 µg/mL
Porphyromonas spp.; KUB No. 6671 Porphyromonas gingivalis
  MIC: ≤ 0.12 µg/mL
Porphyromonas spp.; KUB No. 6672 Porphyromonas gingivalis
  MIC: ≤ 0.12 µg/mL
Porphyromonas spp.; KUB No. 6673 Porphyromonas gingivalis
  MIC: ≤ 0.12 µg/mL
Porphyromonas spp.; KUB No. 6674 Porphyromonas gingivalis
  MIC: ≤ 0.12 µg/mL
Porphyromonas spp.; KUB No. 6676 Porphyromonas gingivalis
  MIC: ≤ 0.12 µg/mL
Porphyromonas spp.; KUB No. 6677 Porphyromonas gingivalis
  MIC: ≤ 0.12 µg/mL
Porphyromonas spp.; KUB No. 6678 Porphyromonas gingivalis
  MIC: ≤ 0.12 µg/mL
Porphyromonas spp.; KUB No. 6679 Porphyromonas gingivalis
  MIC: ≤ 0.12 µg/mL
Porphyromonas spp.; KUB No. 6680 Porphyromonas gingivalis
  MIC: ≤ 0.12 µg/mL
Porphyromonas spp.; KUB No. 6681 Porphyromonas gingivalis
  MIC: ≤ 0.12 µg/mL
Porphyromonas spp.; KUB No. 6682 Porphyromonas gingivalis
  MIC: ≤ 0.12 µg/mL
Porphyromonas spp.; KUB No. 6683 Porphyromonas gingivalis
  MIC: ≤ 0.12 µg/mL
Porphyromonas spp.; KUB No. 6684 Porphyromonas gingivalis
  MIC: ≤ 0.12 µg/mL
Porphyromonas spp.; KUB No. 6685 Porphyromonas gingivalis
  MIC: ≤ 0.12 µg/mL
Porphyromonas spp.; KUB No. 6686 Porphyromonas gingivalis
  MIC: ≤ 0.12 µg/mL
Porphyromonas spp.; KUB No. 6687 Porphyromonas gingivalis
  MIC: ≤ 0.12 µg/mL
Porphyromonas spp.; KUB No. 6688 Porphyromonas gingivalis
  MIC: ≤ 0.12 µg/mL
Porphyromonas spp.; Porphyromonas, KUB No. 6665 Porphyromonas assaccharolytica
  MIC: ≤ 0.12 µg/mL
Porphyromonas spp.; Porphyromonas, table at the place of Table 24, Prevotella spp., read-out: MIC50
  MIC50: ≤ 0.12 µg/mL
Porphyromonas spp.; Porphyromonas, table at the place of Table 24, Prevotella spp., read-out: MIC90
  MIC90: ≤ 0.12 µg/mL
Porphyromonas spp.; table at the place of Table 24, Prevotella spp.
  MICrange: ≤0.12 µg/mL

## C[C@H]1[C@H](NC(=O)/C(=N\OC(C)(C)C(=O)O)c2csc(N)n2)C(=O)N1S(=O)(=O)O [Aztreonam, aztreonam]
Escherichia coli
  MIC: 4 µg/mL (≈ 9.19 µM)
Klebsiella pneumoniae; KUB3633 Klebsiella pneumoniae Clinical isolate
  MIC: 8 µg/mL (≈ 18.4 µM)
Klebsiella pneumoniae; KUB3634 Klebsiella pneumoniae Clinical isolate
  MIC: 16 µg/mL (≈ 36.7 µM)

## colistin
[1]; Metallo-β-lactamase (N = 27): IMP-1 (12), IMP-6 (3), IMP-34 (1), NDM-1 (8), NDM-6 (1), VIM-1 (2)
  MIC50: 0.25
[1]
  MIC90: 1 µg/mL
